Where two headings read alike, the source gives them in different places.
Columns and labels:
[1] = Maximal tolerable dose (MTD) with increasing peptide doses; format: in vivo, mice
Text: (§1) In some embodiments targeting peptides selective for angiogenic vasculature in adipose tissue could be used to treat obesity associated disorders, for example for weight reduction or for preventing weight gain. […] Because brown adipose tissue more vascularized, a vasculature based targeting approach would be very effective for delivery of therapeutic reagents to BAT for activation of this tissue.
When the therapeutic treatment of adipose associated body composition or body weight disorders such as obesity, lypodystrophy, diabetes or metabolic syndrome, fibrosis and cancer is contemplated, the appropriate dosage may also be determined using animal studies to determine the maximal tolerable dose, or MTD, of a bioactive agent per kilogram weight of the test subject. In general, at least one animal species tested is mammalian. Those skilled in the art regularly extrapolate doses for efficacy and avoiding toxicity to other species, including human. Before human studies of efficacy are undertaken, Phase I clinical studies help establish safe doses.
(§2) This reduction was due to the targeted depletion of ASC through apoptotic cell death as evidenced at 48 hrs after injection (see FIG. 14).

[2] = test system: cells from the kidney or peripheral blood; assay: In vivo apoptosis in non-target tissues, APO-TRACE and flow cytometry; set-up: species or system mice; conditions: 2 mg injected, 48 hrs
Text: FIG. 15 illustrates that apoptosis induced by treatment with cytotoxic WAT7-KLAKLAK2 (SEQ ID NO:13-SEQ ID NO:31) all-D-peptide was limited to target tissue. APO-TRACE reagent (Sigma) and flow cytometry were used to detect apoptosis induction in both subcutaneous and intraperitoneal WAT cells, but not in cells from the kidney or peripheral blood.
as §1, §2

[3] = test system: C34+CD31−CD45− cells isolated from lung; assay: In vivo competition (re-homing) assay of 11 admixed phage clones, lung; set-up: species or system mouse; conditions: equal amounts of 11 phage clones mixed and injected; percent of sequenced clones on C34+CD31−CD45− cells from lung
Description: (§3) For competitive homing experiment, 5×10^9 TU for each of the 11 chosen phage clones were admixed and the combined 5.5×10^10 TU was injected. For validation of individual clones, 1×10^10 TU for each phage clones was injected. After 1 hr of circulation and heart perfusion with 10 ml of phosphate buffer saline (PBS), WAT, tibia/femurs, bone-associated skeletal muscle, and lungs were collected. Bone marrow was isolated by flushing tibia/femurs. Hematopoietic and endothelial cells were depleted from cell suspensions of each organ by Dynabeads (Invitrogen) coated with anti-TER119, anti-CD31, and anti-CD45 antibodies (BD Biosciences), after which the remaining cells were processed by FACS to purify CD34+CD31−CD45− cells. Bound phage were recovered by infecting K91 E. coli, quantified by phage transforming unit (TU) counting, and processed for sequencing of the peptide-coding DNA as described in Arap, et al. 2002, ibid and Kolonin, et al., 2006, ibid. For identification of conserved peptide motifs, ClustalW2 software was used.
(§4) After 4 rounds of synchronous in vivo biopanning, eight CX7C and CX8C sequences repeatedly recovered from ASC with frequency above 1% were identified, which were termed WAT1 through WAT8 (see Table 1 below). In parallel, a matched number of peptide inserts homing to lung stromal cells (LSC) were sequenced as a control. None of the WAT-homing peptides were enriched in the lung. Four sequences repeatedly recovered in the lung with frequency above 1%, were termed LU1 through LU4 (see Table 1 below). […] Because the focus of this study is WAT-specific MSC, this clone was excluded from further analysis. Other selected peptides were subjected to an in vivo competition assay in order to identify those with the highest specificity of binding. Equal amounts of phage for the 11 clones displaying peptides WAT1 through WAT7 (SEQ ID NOS: 1-14) and LU1 through LU4 (SEQ ID NOS: 17-24) were admixed and injected into a mouse. Homing specificity of each clone was assessed by quantifying frequency of phage coding for each peptide selected on C34+CD31−CD45− cells isolated from either WAT or lung.

[4] = test system: CD34+CD31−CD45− cells (MSC) from lung; assay: Synchronous in vivo phage display biopanning, clones recovered from lung MSC (LSC); set-up: species or system mouse; conditions: percent of sequenced phage clones carrying the insert in lung after 4 rounds of synchronous in vivo biopanning on CD34+CD31−CD45− cells
Text: (§5) Phage Library Screening: Random peptide libraries based on the M13-derived bacteriophage vector fUSE5 displaying inserts CX7C, CX8C, and CX9C on the pIII protein were admixed (1:1:1) to the combined 10^10 TU of mixed library for the screen performed based on the synchronous biopanning in vivo upon tail vein injection (see for example, US20050074747 and Arap, et al., Nat. Med. 8:121-127, 2002; Kolonin, et al., FASEB J. 20: 979-981, 2006).
as §3
(§6) Methods for isolation of MSC by fluorescence-activated cell sorting (FACS) from organ cell suspensions based on the C34+CD31−CD45− immunophenotype (FIG. 8B) were combined with phage display and optimized for ASC. By adapting the previously described “synchronous in vivo biopanning” method of (Kolonin et al., 2006, ibid), a mixture of cyclic CX7C, CX8C, and CX9C (C: disulfide-bonded cysteines; X: any amino acid) random peptide libraries was screened (FIG. 1A). This approach made it possible to select MSC probes from the pool of over 10^11 combinatorial peptides. Throughout the screen, progressive enrichment in the number of phage particles recovered on MSC from WAT, as well as from the chosen control organs: lung, bone marrow, and skeletal muscle (FIG. 1B) was observed.
as §4
(§7) Shown in Table 1 above are the percent (%) of the sequenced phage clones that carried the indicated WAT or LU insert present within WAT (% in WAT) or lung (% in LUNG) following 4 rounds of synchronous in vivo biopanning on CD34+CD31−CD45− cells.

[5] = test system: C34+CD31−CD45− cells isolated from WAT; assay: In vivo competition (re-homing) assay of 11 admixed phage clones, WAT; set-up: species or system mouse; conditions: equal amounts of 11 phage clones mixed and injected; percent of sequenced clones on C34+CD31−CD45− cells from WAT
Description: as §3, §4

[6] = test system: CD34+CD31−CD45− cells (MSC) from WAT; assay: Synchronous in vivo phage display biopanning, clones recovered from WAT MSC (ASC); set-up: species or system mouse; conditions: percent of sequenced phage clones carrying the insert in WAT after 4 rounds of synchronous in vivo biopanning on CD34+CD31−CD45− cells
Text: as §5, §3, §6, §4, §7

[7] = molecular target: T1, recombinant bacterially-purified full-length core mouse DCN (mDCN) (Mus musculus, UniProt P28654); assay: ELISA binding assay, recombinant full-length core mouse DCN; conditions: His6-tagged protein coated at 10 μg/ml
T1 construct: cloning fragments encoding amino acids 1-354 and 45-354 of mouse DCN cDNA (OriGene); His6; made in house
T1 sequence (P28654 17-354): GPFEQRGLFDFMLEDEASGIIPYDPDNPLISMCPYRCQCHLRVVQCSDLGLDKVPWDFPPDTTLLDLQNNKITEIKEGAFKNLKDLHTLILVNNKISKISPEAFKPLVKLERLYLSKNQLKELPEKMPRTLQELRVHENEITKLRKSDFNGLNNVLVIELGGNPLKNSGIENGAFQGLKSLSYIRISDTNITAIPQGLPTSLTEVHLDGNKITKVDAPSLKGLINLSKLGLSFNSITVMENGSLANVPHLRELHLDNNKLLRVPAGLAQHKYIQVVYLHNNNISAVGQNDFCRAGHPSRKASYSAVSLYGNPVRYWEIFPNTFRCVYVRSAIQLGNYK
Text: (§8) Immunoblotting and Binding Assays: Protein preparations resolved on SDS-PAGE were blotted onto Immobilon-FL membrane (Millipore), blocked with Odyssey blocking buffer (Licor Biosciences), and probed (in PBS/0.05% Triton X-100) with goat anti-DCN (R&D Systems, 1:1,000), rabbit anti-ANX2A (Aviva, 1:1,000), rabbit anti-mouse b-actin (Abcam, 1:10,000) antibodies, or pre- and post-immune antisera against WAT7 (1:1,000) as indicated. Signal was detected by Odyssey imaging system using anti-goat IRDye 800CW or anti-rabbit IRDye 680 both from Licor Biosciences. Bovine DCN was from Sigma-Aldrich, NS0-derived murine DCN was from R&D Systems. Murine DCN cDNA was generated from WAT total RNA using SuperScript kit (Invitrogen). For bacterial expression, full-length mouse core DCN and ΔDCN isoforms were produced by cloning fragments encoding amino acids 1-354 and 45-354 of mouse DCN cDNA (OriGene) or of CLIC4 cDNA (OriGene) in-frame with the His6Tag into pET28a vector, respectively. His6-tagged proteins were purified with His-Tag kit (Novagen). […] Bound peptides or FLAG-resistin were probed with corresponding rabbit anti-peptide Genemed antibodies (1:2,000) or rabbit anti-FLAG antibodies (Sigma-Aldrich, 1:2,000) followed by secondary goat anti-rabbit HRP-conjugated antibodies (Millipore, 1:5,000) and signal detection with Ultra-TMB (Pierce) substrate and measurement of absorbance at 450 nm. […]

[8] = molecular target: T2, recombinant bacterially-purified mouse ΔDCN (Mus musculus, UniProt P28654); assay: ELISA binding assay, ΔDCN; conditions: His6-tagged protein coated at 10 μg/ml
T2 construct: cloning fragments encoding amino acids 1-354 and 45-354 of mouse DCN cDNA (OriGene); His6; made in house
T2 sequence (P28654 45-354): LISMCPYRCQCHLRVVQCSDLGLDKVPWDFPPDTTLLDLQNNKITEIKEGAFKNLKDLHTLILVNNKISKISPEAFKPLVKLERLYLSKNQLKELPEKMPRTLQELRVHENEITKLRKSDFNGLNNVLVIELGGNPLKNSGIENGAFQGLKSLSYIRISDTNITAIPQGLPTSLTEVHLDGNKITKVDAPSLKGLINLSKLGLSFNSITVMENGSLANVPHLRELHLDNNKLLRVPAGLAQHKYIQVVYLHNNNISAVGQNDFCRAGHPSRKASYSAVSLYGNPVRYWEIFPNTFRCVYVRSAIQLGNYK
Text: as §8

[9] = molecular target: T3, glycosylated bovine DCN (bDCN*) (Bos taurus, UniProt P21793); assay: ELISA binding assay, glycosylated bovine DCN; conditions: compared with BSA background
T3 construct: purchased Sigma-Aldrich
Text: as §8

[10] = molecular target: T4, full-length glycosylated mouse DCN (mDCN*) (Mus musculus, UniProt P28654); assay: ELISA binding assay, glycosylated mouse DCN; conditions: compared with BSA background
T4 construct: full-length glycosylated mouse DCN (mDCN*); purchased R&D Systems; host or cells: NS0
T4 sequence (P28654 31-354): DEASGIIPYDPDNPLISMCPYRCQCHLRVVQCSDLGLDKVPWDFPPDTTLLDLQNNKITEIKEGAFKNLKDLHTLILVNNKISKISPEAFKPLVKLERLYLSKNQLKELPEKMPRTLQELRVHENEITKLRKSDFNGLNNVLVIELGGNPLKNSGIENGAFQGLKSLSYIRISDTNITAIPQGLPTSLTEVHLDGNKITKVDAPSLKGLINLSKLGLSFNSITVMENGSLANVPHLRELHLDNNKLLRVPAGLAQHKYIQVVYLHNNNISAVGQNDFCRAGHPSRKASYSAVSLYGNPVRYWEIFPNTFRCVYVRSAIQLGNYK
Text: as §8

T3 sequence (P21793 31-360): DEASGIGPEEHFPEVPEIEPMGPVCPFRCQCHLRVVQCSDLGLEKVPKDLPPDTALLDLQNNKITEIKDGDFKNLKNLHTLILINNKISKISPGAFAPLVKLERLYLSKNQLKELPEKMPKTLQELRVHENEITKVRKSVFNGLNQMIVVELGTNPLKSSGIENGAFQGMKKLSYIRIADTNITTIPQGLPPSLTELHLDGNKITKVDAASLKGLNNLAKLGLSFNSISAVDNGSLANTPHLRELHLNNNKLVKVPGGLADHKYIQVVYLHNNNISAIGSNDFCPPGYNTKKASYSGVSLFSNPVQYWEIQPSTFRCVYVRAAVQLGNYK

CC(C)C[C@@H](NC(=O)[C@@H](CCCCN)NC(=O)CCCCCNC(=O)[C@H]1CSSC[C@@H](N)C(=O)N[C@H](CO)C(=O)N[C@H](Cc2c[nH]c3ccccc23)C(=O)N[C@H](CCCCN)C(=O)N[C@H](Cc2ccc(O)cc2)C(=O)N[C@H](Cc2c[nH]c3ccccc23)C(=O)N[C@H](Cc2ccccc2)C(=O)NCC(=O)N[C@H](CCC(=O)O)C(=O)N1)C(=O)N[C@H](C)C(=O)N[C@H](CCCCN)C(=O)N[C@H](CC(C)C)C(=O)N[C@H](C)C(=O)N[C@H](CCCCN)C(=O)N[C@H](CCCCN)C(=O)N[C@H](CC(C)C)C(=O)N[C@H](C)C(=O)N[C@H](CCCCN)C(=O)N[C@H](CC(C)C)C(=O)N[C@H](C)C(=O)N[C@H](CCCCN)C(=O)O [WAT7-KLAKLAK2]
MTD [1]: No MTD was reached | MTD ([1]; mouse, in vivo, read-out: MTD): > 100 mg/kg | apoptotic cell death in kidney or peripheral blood [2]: no apoptotic cell death was identified

YKNVDSGG [WAT-2, used as control peptide]
Re-home to Lung (%) [3]: 2.9% | % in LUNG [4]: 0% | Re-home to WAT (%) [5]: 2.1% | % in WAT [6]: 2.9% | binding to recombinant core mouse DCN (OD450) [7]: did not display DCN binding

B1: Resistin: FLAG-tagged mouse resistin produced in HEK293 cells; WAT-secreted adipokine, ligand of ΔDCN (protein)
chain: SSMPLCPIDEAIDKKIKQDFNSLFPNAIKNIGLNCWTVSSRGKLASCPEGTAVLSCSCGSACGSWDIREEKVCHCQCARIDWTAARCCKLQVAS
binding to ΔDCN (OD450) [8]: dose-dependent | binding to glycosylated bovine DCN (OD450) [9]: completely inefficient in binding | binding to glycosylated mouse DCN (OD450) [10]: completely inefficient in binding

Reference: patent publication US9539341B2, “Methods and compositions for targeting adipose cells in mammals” (Board of Regents, the University of Texas System, priority 2011, dated 2017)
